Assay results from ChEMBL document CHEMBL3885881, “DrugMatrix”.

Species on record: Rattus norvegicus
Experiment: DrugMatrix - Regimen: Daily Repeat
Assay type: toxicity, organism-based, Sprague-Dawley
Parameters: regimen Daily Repeat, gender Male, age 6-8 weeks
Conditions: in vivo, iv, vehicle 100 % SALINE; for ABSOLUTE BASOPHIL / ABSOLUTE EOSINOPHIL / ABSOLUTE LYMPHOCYTE / ABSOLUTE MONOCYTE / ABSOLUTE SEGMENTED NEUTROPHIL / BASOPHIL / EOSINOPHIL / ERYTHROCYTE COUNT / HEMATOCRIT / HEMOGLOBIN / LEUKOCYTE COUNT / LYMPHOCYTE / MEAN CORPUSCULAR HEMOGLOBIN / MEAN CORPUSCULAR HEMOGLOBIN CONCENTRATION / MEAN CORPUSCULAR VOLUME / MONOCYTE / NEUTROPHIL / NUCLEATED RED BLOOD CELLS / PLATELET COUNT: tissue Blood; for ALANINE AMINOTRANSFERASE / ALBUMIN / ALKALINE PHOSPHATASE / ASPARTATE AMINOTRANSFERASE / BLOOD UREA NITROGEN / CARBON DIOXIDE / CHLORIDE / CHOLESTEROL / CREATINE PHOSPHOKINASE / CREATININE / GLUCOSE / LACTATE DEHYDROGENASE / LIPASE / PHOSPHORUS / POTASSIUM / SODIUM / TOTAL BILIRUBIN / TOTAL PROTEIN / URIC ACID: tissue Plasma
[1] = 0.5 mg/kg, 72 h, dose level Low, time 3 day
[2] = 0.5 mg/kg, 120 h, dose level Low, time 5 day
[3] = […], 72 h, dose 2.5 mg/Kg, dose level High, time 3 day
[4] = […], 120 h, dose 2.5 mg/Kg, dose level High, time 5 day

SMILES: CC[N+](CC)(CC)CCOc1cccc(OCC[N+](CC)(CC)CC)c1OCC[N+](CC)(CC)CC.[I-].[I-].[I-] [GALLAMINE TRIETHIODIDE]
- ABSOLUTE BASOPHIL [1]: 0 CELLS/uL
- ABSOLUTE EOSINOPHIL [1]: 0 CELLS/uL
- ABSOLUTE LYMPHOCYTE [1]: 12252.67 CELLS/uL
- ABSOLUTE MONOCYTE [1]: 379 CELLS/uL
- ABSOLUTE SEGMENTED NEUTROPHIL [1]: 1435 CELLS/uL
- BASOPHIL [1]: 0%
- EOSINOPHIL [1]: 0%
- ERYTHROCYTE COUNT [1]: 5.22 x10E6/uL
- HEMATOCRIT [1]: 33.63%
- HEMOGLOBIN [1]: 13.53 G/DL
- LEUKOCYTE COUNT [1]: 14.07 x10E3/uL
- LYMPHOCYTE [1]: 87%
- MEAN CORPUSCULAR HEMOGLOBIN [1]: 25.93 pg
- MEAN CORPUSCULAR HEMOGLOBIN CONCENTRATION [1]: 40.3 G/DL
- MEAN CORPUSCULAR VOLUME [1]: 64.4 fL
- MONOCYTE [1]: 2.67%
- NEUTROPHIL [1]: 10.33%
- NUCLEATED RED BLOOD CELLS [1]: 0.33 /100WBC
- PLATELET COUNT [1]: 1175 x10E3/uL
- ALANINE AMINOTRANSFERASE [1]: 52 u/L
- ALBUMIN [1]: 4.07 G/DL
- ALKALINE PHOSPHATASE [1]: 372 u/L
- ASPARTATE AMINOTRANSFERASE [1]: 79.33 u/L
- BLOOD UREA NITROGEN [1]: 15.33 mg/dL
- CARBON DIOXIDE [1]: 23.33 mmol/L
- CHLORIDE [1]: 104.33 MEQ/L
- CHOLESTEROL [1]: 71.33 mg/dL
- CREATINE PHOSPHOKINASE [1]: 361.33 u/L
- CREATININE [1]: 0.14 mg/dL
- GLUCOSE [1]: 161.67 mg/dL
- LACTATE DEHYDROGENASE [1]: 163 u/L
- LIPASE [1]: 9 u/L
- PHOSPHORUS [1]: 13.97 mg/dL
- POTASSIUM [1]: 6.65 MEQ/L
- SODIUM [1]: 146.57 MEQ/L
- TOTAL BILIRUBIN [1]: 0.2 mg/dL
- TOTAL PROTEIN [1]: 5.67 G/DL
- URIC ACID [1]: 1.4 mg/dL
- ABSOLUTE BASOPHIL [2]: 0 CELLS/uL
- ABSOLUTE EOSINOPHIL [2]: 43 CELLS/uL
- ABSOLUTE LYMPHOCYTE [2]: 13831.33 CELLS/uL
- ABSOLUTE MONOCYTE [2]: 112.67 CELLS/uL
- ABSOLUTE SEGMENTED NEUTROPHIL [2]: 1346.33 CELLS/uL
- BASOPHIL [2]: 0%
- EOSINOPHIL [2]: 0.33%
- ERYTHROCYTE COUNT [2]: 5.96 x10E6/uL
- HEMATOCRIT [2]: 37.33%
- HEMOGLOBIN [2]: 14.57 G/DL
- LEUKOCYTE COUNT [2]: 15.33 x10E3/uL
- LYMPHOCYTE [2]: 90.33%
- MEAN CORPUSCULAR HEMOGLOBIN [2]: 24.5 pg
- MEAN CORPUSCULAR HEMOGLOBIN CONCENTRATION [2]: 39.03 G/DL
- MEAN CORPUSCULAR VOLUME [2]: 62.7 fL
- MONOCYTE [2]: 0.67%
- NEUTROPHIL [2]: 8.67%
- NUCLEATED RED BLOOD CELLS [2]: 0.33 /100WBC
- PLATELET COUNT [2]: 1517.33 x10E3/uL
- ALANINE AMINOTRANSFERASE [2]: 52.33 u/L
- ALBUMIN [2]: 4.17 G/DL
- ALKALINE PHOSPHATASE [2]: 369.67 u/L
- ASPARTATE AMINOTRANSFERASE [2]: 80.67 u/L
- BLOOD UREA NITROGEN [2]: 15.67 mg/dL
- CARBON DIOXIDE [2]: 22 mmol/L
- CHLORIDE [2]: 104 MEQ/L
- CHOLESTEROL [2]: 61.67 mg/dL
- CREATINE PHOSPHOKINASE [2]: 215 u/L
- CREATININE [2]: 0.26 mg/dL
- GLUCOSE [2]: 161 mg/dL
- LACTATE DEHYDROGENASE [2]: 282 u/L
- LIPASE [2]: 10 u/L
- PHOSPHORUS [2]: 14.53 mg/dL
- POTASSIUM [2]: 7.06 MEQ/L
- SODIUM [2]: 146.97 MEQ/L
- TOTAL BILIRUBIN [2]: 0.2 mg/dL
- TOTAL PROTEIN [2]: 5.93 G/DL
- URIC ACID [2]: 1.57 mg/dL
- ABSOLUTE BASOPHIL [3]: 0 CELLS/uL
- ABSOLUTE EOSINOPHIL [3]: 0 CELLS/uL
- ABSOLUTE LYMPHOCYTE [3]: 15571.67 CELLS/uL
- ABSOLUTE MONOCYTE [3]: 0 CELLS/uL
- ABSOLUTE SEGMENTED NEUTROPHIL [3]: 1428.33 CELLS/uL
- BASOPHIL [3]: 0%
- EOSINOPHIL [3]: 0%
- ERYTHROCYTE COUNT [3]: 5.32 x10E6/uL
- HEMATOCRIT [3]: 34.57%
- HEMOGLOBIN [3]: 13.83 G/DL
- LEUKOCYTE COUNT [3]: 17 x10E3/uL
- LYMPHOCYTE [3]: 91.67%
- MEAN CORPUSCULAR HEMOGLOBIN [3]: 25.97 pg
- MEAN CORPUSCULAR HEMOGLOBIN CONCENTRATION [3]: 40 G/DL
- MEAN CORPUSCULAR VOLUME [3]: 64.93 fL
- MONOCYTE [3]: 0%
- NEUTROPHIL [3]: 8.33%
- NUCLEATED RED BLOOD CELLS [3]: 1 /100WBC
- PLATELET COUNT [3]: 1293 x10E3/uL
- ALANINE AMINOTRANSFERASE [3]: 50 u/L
- ALBUMIN [3]: 4.23 G/DL
- ALKALINE PHOSPHATASE [3]: 314.67 u/L
- ASPARTATE AMINOTRANSFERASE [3]: 74 u/L
- BLOOD UREA NITROGEN [3]: 15.67 mg/dL
- CARBON DIOXIDE [3]: 22.33 mmol/L
- CHLORIDE [3]: 104.33 MEQ/L
- CHOLESTEROL [3]: 65.67 mg/dL
- CREATINE PHOSPHOKINASE [3]: 204 u/L
- CREATININE [3]: 0.27 mg/dL
- GLUCOSE [3]: 155 mg/dL
- LACTATE DEHYDROGENASE [3]: 158 u/L
- LIPASE [3]: 11.33 u/L
- PHOSPHORUS [3]: 12.97 mg/dL
- POTASSIUM [3]: 6.92 MEQ/L
- SODIUM [3]: 147.33 MEQ/L
- TOTAL BILIRUBIN [3]: 0.17 mg/dL
- TOTAL PROTEIN [3]: 6 G/DL
- URIC ACID [3]: 1.53 mg/dL
- ABSOLUTE BASOPHIL [4]: 0 CELLS/uL
- ABSOLUTE EOSINOPHIL [4]: 0 CELLS/uL
- ABSOLUTE LYMPHOCYTE [4]: 13793.67 CELLS/uL
- ABSOLUTE MONOCYTE [4]: 142.67 CELLS/uL
- ABSOLUTE SEGMENTED NEUTROPHIL [4]: 830.33 CELLS/uL
- BASOPHIL [4]: 0%
- EOSINOPHIL [4]: 0%
- ERYTHROCYTE COUNT [4]: 5.65 x10E6/uL
- HEMATOCRIT [4]: 35.97%
- HEMOGLOBIN [4]: 14.53 G/DL
- LEUKOCYTE COUNT [4]: 14.77 x10E3/uL
- LYMPHOCYTE [4]: 93.33%
- MEAN CORPUSCULAR HEMOGLOBIN [4]: 25.73 pg
- MEAN CORPUSCULAR HEMOGLOBIN CONCENTRATION [4]: 40.4 G/DL
- MEAN CORPUSCULAR VOLUME [4]: 63.63 fL
- MONOCYTE [4]: 1%
- NEUTROPHIL [4]: 5.67%
- NUCLEATED RED BLOOD CELLS [4]: 0.33 /100WBC
- PLATELET COUNT [4]: 1259.67 x10E3/uL
- ALANINE AMINOTRANSFERASE [4]: 54 u/L
- ALBUMIN [4]: 4.23 G/DL
- ALKALINE PHOSPHATASE [4]: 276.67 u/L
- ASPARTATE AMINOTRANSFERASE [4]: 81.33 u/L
- BLOOD UREA NITROGEN [4]: 15.67 mg/dL
- CARBON DIOXIDE [4]: 21.33 mmol/L
- CHLORIDE [4]: 105 MEQ/L
- CHOLESTEROL [4]: 56.33 mg/dL
- CREATINE PHOSPHOKINASE [4]: 248 u/L
- CREATININE [4]: 0.19 mg/dL
- GLUCOSE [4]: 147 mg/dL
- LACTATE DEHYDROGENASE [4]: 275.33 u/L
- LIPASE [4]: 10 u/L
- PHOSPHORUS [4]: 12.67 mg/dL
- POTASSIUM [4]: 6.58 MEQ/L
- SODIUM [4]: 146.13 MEQ/L
- TOTAL BILIRUBIN [4]: 0.2 mg/dL
- TOTAL PROTEIN [4]: 6.13 G/DL
- URIC ACID [4]: 1.47 mg/dL
